In patent US20100267561A1, “HERBICIDAL PYRIDAZINONE DERIVATIVES” (priority 2007, published 2010):

Experiments:
Assay in all cases: Test E pre-/postemergence plant response
Type in all cases: in vivo
Conditions in all cases: scale 0 to 100
[1] = system: guineagrass (Panicum maximum)
Summary of the method: (§1)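 Seeds were planted and treated preemergence with compound formulated in a non-phytotoxic solvent mixture containing surfactant; postemergence sprays in the same formulation went onto plants 2 to 18 cm tall (1- to 4-leaf stage). After 14 to 21 days in a greenhouse, injury versus untreated controls was rated visually, 0 (no effect) to 100 (complete control).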

[2] = system: bermudagrass (Cynodon dactylon)
Summary of the method: as §1

[3] = system: barnyardgrass (Echinochloa crus-galli)
Summary of the method: as §1

[4] = system: itchgrass (Rottboellia cochinchinensis)
Summary of the method: as §1

[5] = system: pitted morningglory (Ipomoea lacunosa)
Summary of the method: as §1

[6] = system: goosegrass (Eleusine indica)
Summary of the method: as §1

[7] = system: common chickweed (Stellaria media)
Summary of the method: as §1

[8] = system: naked crabgrass (Digitaria nuda)
Summary of the method: as §1

[9] = system: black mustard (Brassica nigra)
Summary of the method: as §1

[10] = system: annual bluegrass (Poa annua)
Summary of the method: as §1

[11] = system: Italian ryegrass (Lolium multiflorum)
Summary of the method: as §1

COC(=O)Oc1cnn(C)c(=O)c1-n1nc(-c2ccc(Cl)cc2)cc1C [Compound 33]
Plant response rating, Guineagrass ([1]; 16 g ai/ha, Preemergence): 100 | Plant response rating, Guineagrass ([1]; 31 g ai/ha, Preemergence): 100 | Plant response rating, Guineagrass ([1]; 62 g ai/ha, Preemergence): 100 | Plant response rating, Guineagrass ([1]; Postemergence, 8 g ai/ha): 80 | Plant response rating, Guineagrass ([1]; Postemergence, 16 g ai/ha): 80 | Plant response rating, Guineagrass ([1]; Postemergence, 31 g ai/ha): 90 | Plant response rating, Guineagrass ([1]; Postemergence, 62 g ai/ha): 95 | Plant response rating, Bermudagrass ([2]; 8 g ai/ha, Preemergence): 90 | Plant response rating, Bermudagrass ([2]; 16 g ai/ha, Preemergence): 90 | Plant response rating, Bermudagrass ([2]; 31 g ai/ha, Preemergence): 98 | Plant response rating, Bermudagrass ([2]; 62 g ai/ha, Preemergence): 100 | Plant response rating, Bermudagrass ([2]; Postemergence, 8 g ai/ha): 70 | Plant response rating, Bermudagrass ([2]; Postemergence, 16 g ai/ha): 80 | Plant response rating, Bermudagrass ([2]; Postemergence, 31 g ai/ha): 90 | Plant response rating, Bermudagrass ([2]; Postemergence, 62 g ai/ha): 95 | Plant response rating, Barnyardgrass ([3]; 8 g ai/ha, Preemergence): 65 | Plant response rating, Barnyardgrass ([3]; 16 g ai/ha, Preemergence): 80 | Plant response rating, Barnyardgrass ([3]; 31 g ai/ha, Preemergence): 100 | Plant response rating, Barnyardgrass ([3]; 62 g ai/ha, Preemergence): 100 | Plant response rating, Barnyardgrass ([3]; Postemergence, 8 g ai/ha): 95 | Plant response rating, Barnyardgrass ([3]; Postemergence, 16 g ai/ha): 100 | Plant response rating, Barnyardgrass ([3]; Postemergence, 31 g ai/ha): 100 | Plant response rating, Barnyardgrass ([3]; Postemergence, 62 g ai/ha): 100 | Plant response rating, Itchgrass ([4]; 16 g ai/ha, Preemergence): 60 | Plant response rating, Itchgrass ([4]; 31 g ai/ha, Preemergence): 80 | Plant response rating, Itchgrass ([4]; 62 g ai/ha, Preemergence): 80 | Plant response rating, Itchgrass ([4]; Postemergence, 8 g ai/ha): 40 | Plant response rating, Itchgrass ([4]; Postemergence, 16 g ai/ha): 65 | Plant response rating, Itchgrass ([4]; Postemergence, 31 g ai/ha): 70 | Plant response rating, Itchgrass ([4]; Postemergence, 62 g ai/ha): 75 | Plant response rating, Morningglory ([5]; 16 g ai/ha, Preemergence): 0 | Plant response rating, Morningglory ([5]; 31 g ai/ha, Preemergence): 0 | Plant response rating, Morningglory ([5]; 62 g ai/ha, Preemergence): 0 | Plant response rating, Morningglory ([5]; Postemergence, 8 g ai/ha): 0 | Plant response rating, Morningglory ([5]; Postemergence, 16 g ai/ha): 0 | Plant response rating, Morningglory ([5]; Postemergence, 31 g ai/ha): 0 | Plant response rating, Morningglory ([5]; Postemergence, 62 g ai/ha): 0 | Plant response rating, Goosegrass ([6]; 8 g ai/ha, Preemergence): 75 | Plant response rating, Goosegrass ([6]; 16 g ai/ha, Preemergence): 98 | Plant response rating, Goosegrass ([6]; 31 g ai/ha, Preemergence): 98 | Plant response rating, Goosegrass ([6]; 62 g ai/ha, Preemergence): 100 | Plant response rating, Goosegrass ([6]; Postemergence, 8 g ai/ha): 35 | Plant response rating, Goosegrass ([6]; Postemergence, 16 g ai/ha): 35 | Plant response rating, Goosegrass ([6]; Postemergence, 31 g ai/ha): 75 | Plant response rating, Goosegrass ([6]; Postemergence, 62 g ai/ha): 75 | Plant response rating, Chickweed ([7]; Postemergence, 8 g ai/ha): 0 | Plant response rating, Chickweed ([7]; Postemergence, 16 g ai/ha): 0 | Plant response rating, Chickweed ([7]; Postemergence, 31 g ai/ha): 0 | Plant response rating, Crabgrass, Naked ([8]; 8 g ai/ha, Preemergence): 75 | Plant response rating, Crabgrass, Naked ([8]; 16 g ai/ha, Preemergence): 95 | Plant response rating, Crabgrass, Naked ([8]; 31 g ai/ha, Preemergence): 100 | Plant response rating, Crabgrass, Naked ([8]; 62 g ai/ha, Preemergence): 100 | Plant response rating, Crabgrass, Naked ([8]; Postemergence, 8 g ai/ha): 75 | Plant response rating, Crabgrass, Naked ([8]; Postemergence, 16 g ai/ha): 90 | Plant response rating, Crabgrass, Naked ([8]; Postemergence, 31 g ai/ha): 90 | Plant response rating, Crabgrass, Naked ([8]; Postemergence, 62 g ai/ha): 98 | Plant response rating, Mustard, Black ([9]; 8 g ai/ha, Preemergence): 0 | Plant response rating, Mustard, Black ([9]; 16 g ai/ha, Preemergence): 0 | Plant response rating, Mustard, Black ([9]; 31 g ai/ha, Preemergence): 0 | Plant response rating, Mustard, Black ([9]; 62 g ai/ha, Preemergence): 0 | Plant response rating, Mustard, Black ([9]; Postemergence, 8 g ai/ha): 0 | Plant response rating, Mustard, Black ([9]; Postemergence, 16 g ai/ha): 0 | Plant response rating, Mustard, Black ([9]; Postemergence, 31 g ai/ha): 0 | Plant response rating, Mustard, Black ([9]; Postemergence, 62 g ai/ha): 0 | Plant response rating, Bluegrass ([10]; 8 g ai/ha, Preemergence): 0 | Plant response rating, Bluegrass ([10]; 16 g ai/ha, Preemergence): 0 | Plant response rating, Bluegrass ([10]; 31 g ai/ha, Preemergence): 0 | Plant response rating, Bluegrass ([10]; 62 g ai/ha, Preemergence): 0 | Plant response rating, Bluegrass ([10]; Postemergence, 8 g ai/ha): 0 | Plant response rating, Bluegrass ([10]; Postemergence, 16 g ai/ha): 0 | Plant response rating, Bluegrass ([10]; Postemergence, 31 g ai/ha): 5 | Plant response rating, Bluegrass ([10]; Postemergence, 62 g ai/ha): 5 | Plant response rating, Ryegrass, Italian ([11]; 16 g ai/ha, Preemergence): 98 | Plant response rating, Ryegrass, Italian ([11]; 31 g ai/ha, Preemergence): 100 | Plant response rating, Ryegrass, Italian ([11]; 62 g ai/ha, Preemergence): 100 | Plant response rating, Ryegrass, Italian ([11]; Postemergence, 8 g ai/ha): 35 | Plant response rating, Ryegrass, Italian ([11]; Postemergence, 16 g ai/ha): 75 | Plant response rating, Ryegrass, Italian ([11]; Postemergence, 31 g ai/ha): 90 | Plant response rating, Ryegrass, Italian ([11]; Postemergence, 62 g ai/ha): 95

Cc1cc(-c2ccc(Cl)cc2)nn1-c1c(OC(=O)C(C)C)cnn(C)c1=O [Compound 34]
Plant response rating, Guineagrass ([1]; 16 g ai/ha, Preemergence): 100 | Plant response rating, Guineagrass ([1]; 31 g ai/ha, Preemergence): 100 | Plant response rating, Guineagrass ([1]; 62 g ai/ha, Preemergence): 100 | Plant response rating, Guineagrass ([1]; Postemergence, 8 g ai/ha): 95 | Plant response rating, Guineagrass ([1]; Postemergence, 16 g ai/ha): 95 | Plant response rating, Guineagrass ([1]; Postemergence, 31 g ai/ha): 100 | Plant response rating, Guineagrass ([1]; Postemergence, 62 g ai/ha): 100 | Plant response rating, Bermudagrass ([2]; 16 g ai/ha, Preemergence): 40 | Plant response rating, Bermudagrass ([2]; 31 g ai/ha, Preemergence): 90 | Plant response rating, Bermudagrass ([2]; 62 g ai/ha, Preemergence): 100 | Plant response rating, Bermudagrass ([2]; Postemergence, 8 g ai/ha): 20 | Plant response rating, Bermudagrass ([2]; Postemergence, 16 g ai/ha): 50 | Plant response rating, Bermudagrass ([2]; Postemergence, 31 g ai/ha): 80 | Plant response rating, Bermudagrass ([2]; Postemergence, 62 g ai/ha): 95 | Plant response rating, Barnyardgrass ([3]; 16 g ai/ha, Preemergence): 80 | Plant response rating, Barnyardgrass ([3]; 31 g ai/ha, Preemergence): 100 | Plant response rating, Barnyardgrass ([3]; 62 g ai/ha, Preemergence): 100 | Plant response rating, Barnyardgrass ([3]; Postemergence, 8 g ai/ha): 95 | Plant response rating, Barnyardgrass ([3]; Postemergence, 16 g ai/ha): 100 | Plant response rating, Barnyardgrass ([3]; Postemergence, 31 g ai/ha): 100 | Plant response rating, Barnyardgrass ([3]; Postemergence, 62 g ai/ha): 100 | Plant response rating, Itchgrass ([4]; 16 g ai/ha, Preemergence): 80 | Plant response rating, Itchgrass ([4]; 31 g ai/ha, Preemergence): 85 | Plant response rating, Itchgrass ([4]; 62 g ai/ha, Preemergence): 90 | Plant response rating, Itchgrass ([4]; Postemergence, 8 g ai/ha): 70 | Plant response rating, Itchgrass ([4]; Postemergence, 16 g ai/ha): 80 | Plant response rating, Itchgrass ([4]; Postemergence, 31 g ai/ha): 95 | Plant response rating, Itchgrass ([4]; Postemergence, 62 g ai/ha): 95 | Plant response rating, Morningglory ([5]; 16 g ai/ha, Preemergence): 0 | Plant response rating, Morningglory ([5]; 31 g ai/ha, Preemergence): 0 | Plant response rating, Morningglory ([5]; 62 g ai/ha, Preemergence): 0 | Plant response rating, Morningglory ([5]; Postemergence, 8 g ai/ha): 0 | Plant response rating, Morningglory ([5]; Postemergence, 16 g ai/ha): 0 | Plant response rating, Morningglory ([5]; Postemergence, 31 g ai/ha): 0 | Plant response rating, Morningglory ([5]; Postemergence, 62 g ai/ha): 30 | Plant response rating, Goosegrass ([6]; 16 g ai/ha, Preemergence): 65 | Plant response rating, Goosegrass ([6]; 31 g ai/ha, Preemergence): 95 | Plant response rating, Goosegrass ([6]; 62 g ai/ha, Preemergence): 100 | Plant response rating, Goosegrass ([6]; Postemergence, 8 g ai/ha): 0 | Plant response rating, Goosegrass ([6]; Postemergence, 16 g ai/ha): 20 | Plant response rating, Goosegrass ([6]; Postemergence, 31 g ai/ha): 80 | Plant response rating, Goosegrass ([6]; Postemergence, 62 g ai/ha): 80 | Plant response rating, Chickweed ([7]; 16 g ai/ha, Preemergence): 0 | Plant response rating, Crabgrass, Naked ([8]; 16 g ai/ha, Preemergence): 100 | Plant response rating, Crabgrass, Naked ([8]; 31 g ai/ha, Preemergence): 100 | Plant response rating, Crabgrass, Naked ([8]; 62 g ai/ha, Preemergence): 100 | Plant response rating, Crabgrass, Naked ([8]; Postemergence, 8 g ai/ha): 40 | Plant response rating, Crabgrass, Naked ([8]; Postemergence, 16 g ai/ha): 80 | Plant response rating, Crabgrass, Naked ([8]; Postemergence, 62 g ai/ha): 100 | Plant response rating, Mustard, Black ([9]; 16 g ai/ha, Preemergence): 0 | Plant response rating, Mustard, Black ([9]; 31 g ai/ha, Preemergence): 0 | Plant response rating, Mustard, Black ([9]; 62 g ai/ha, Preemergence): 0 | Plant response rating, Mustard, Black ([9]; Postemergence, 8 g ai/ha): 0 | Plant response rating, Mustard, Black ([9]; Postemergence, 16 g ai/ha): 0 | Plant response rating, Mustard, Black ([9]; Postemergence, 31 g ai/ha): 0 | Plant response rating, Mustard, Black ([9]; Postemergence, 62 g ai/ha): 0 | Plant response rating, Bluegrass ([10]; 16 g ai/ha, Preemergence): 0 | Plant response rating, Bluegrass ([10]; 31 g ai/ha, Preemergence): 0 | Plant response rating, Bluegrass ([10]; 62 g ai/ha, Preemergence): 15 | Plant response rating, Bluegrass ([10]; Postemergence, 8 g ai/ha): 0 | Plant response rating, Bluegrass ([10]; Postemergence, 16 g ai/ha): 0 | Plant response rating, Bluegrass ([10]; Postemergence, 31 g ai/ha): 0 | Plant response rating, Bluegrass ([10]; Postemergence, 62 g ai/ha): 0 | Plant response rating, Ryegrass, Italian ([11]; 16 g ai/ha, Preemergence): 80 | Plant response rating, Ryegrass, Italian ([11]; 31 g ai/ha, Preemergence): 100 | Plant response rating, Ryegrass, Italian ([11]; 62 g ai/ha, Preemergence): 100 | Plant response rating, Ryegrass, Italian ([11]; Postemergence, 8 g ai/ha): 60 | Plant response rating, Ryegrass, Italian ([11]; Postemergence, 16 g ai/ha): 95 | Plant response rating, Ryegrass, Italian ([11]; Postemergence, 31 g ai/ha): 100 | Plant response rating, Ryegrass, Italian ([11]; Postemergence, 62 g ai/ha): 100
